Laboratory results taken from patent US20240391862A1, “(1,4,5-TRISUBSTITUTED-1H-PYRAZOL-3-YL)OXY-2-ALKOXY ALKYL ACIDS AND THEIR DERIVATIVES, THEIR SALTS AND THEIR USE AS HERBICIDAL AGENTS” (Bayer AKtiengesellschaft, priority 2021, published 2024).

Experiments:
[1] = test system: ZEAMX; experiment: Post-emergence herbicidal effect and crop plant compatibility, greenhouse pot test; format: in vivo, Zea mays; settings: one-leaf stage, rated visually after about 3 weeks vs untreated controls; for plant injury at 80 g/ha: Zea mays, 504 h, read-out: Post-emergence effect at 80 g/ha against ZEAMX in %
Outline: (§1)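 Greenhouse pot plants in sandy loam receive a one-leaf-stage spray at 20 to 320 g/ha. Activity is assessed visually around 3 weeks afterwards on a 0–100% scale, where 100% means the plants have died.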

[2] = test system: TRZAS; experiment: as above; format: in vivo, Triticum aestivum; settings: for Post-emergence effect against TRZAS: visual rating about 3 weeks after treatment, crop plant
Outline: as §1

[3] = test system: GLXMA; experiment: as above; format: in vivo, Glycine max; settings: visual rating about 3 weeks after treatment, crop plant
Excerpt: (§2) • ALOMY: Alopecurus myosuroides SETVI: Setaria viridis • AVEFA: Avena fatua POLCO: Fallopia convolvulus • AMARE: Amaranthus retroflexus ECHCG: Echinochloa crus-galli • LOLRJ: Lolium rigidum STEME: Stellaria media • VERPE: Veronica persica MATIN: Tripleurospermum inodorum • DIGSA: Digitaria sanguinalis ABUTH: Abutylon threophrasti • TRZAS: Triticum aestivum VIOTR: Viola tricolor • BRSNW: Brassica napus ZEAMX: Zea mays • PHBPU: Ipomoea purpurea GLXMA: Glycine max • ORYSA: Oryza sativa HORMU: Hordeum murinum
Seeds of monocotyledonous and dicotyledonous weeds and crop plants are placed in sandy loam in plastic or organic planting pots, covered with soil and cultivated in a greenhouse under controlled growth conditions. 2 to 3 weeks after sowing, the trial plants are treated at the one-leaf stage. The compounds of the invention, formulated in the form of wettable powders (WP) or as emulsion concentrates (EC), are then sprayed onto the green parts of the plants as aqueous suspension or emulsion with addition of 0.5% additive at a water application rate of 600 l/ha (converted). After the test plants have been kept in the greenhouse under optimum growth conditions for about 3 weeks, the activity of the preparations is rated visually in comparison to untreated controls. For example, 100% activity=the plants have died, 0% activity=like control plants.
Tables 20a to 38c below show the effects/crop compatibilities of selected compounds of the general formula (I) on various harmful plants at an application rate corresponding to 20 to 320 g/ha, which were obtained by the trial procedure specified above.

[4] = test system: ABUTH; experiment: Post-emergence herbicidal effect, greenhouse pot test; format: in vivo, Abutilon theophrasti; settings: visual rating about 3 weeks after treatment
Outline: (§3)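 Greenhouse pot test: weeds and crops sown in sandy loam, sprayed post-emergence at one-leaf stage (2–3 weeks after sowing) with WP or EC formulations plus 0.5% additive at 600 l/ha water, rates 20–320 g/ha. Visual rating about 3 weeks later versus untreated controls (100% = dead, 0% = as control).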

[5] = test system: AMARE; experiment: as above; format: in vivo, Amaranthus retroflexus; settings: 320 g/ha, visual rating about 3 weeks after treatment
Outline: as §3

[6] = test system: PHBPU; experiment: as above; format: in vivo, Ipomoea purpurea; settings: 320 g/ha
Outline: as §3

[7] = test system: ZEAMX; experiment: Pre-emergence herbicidal effect and crop plant compatibility, greenhouse pot test; format: in vivo, Zea mays; settings: scored visually after about 3 weeks vs untreated controls
Excerpt: (§4) Seeds of monocotyledonous and dicotyledonous weed plants and crop plants are placed in plastic or organic planting pots and covered with soil. The compounds of the invention, formulated in the form of wettable powders (WP) or as emulsion concentrates (EC), are then applied to the surface of the covering soil as aqueous suspension or emulsion with addition of 0.5% additive at a water application rate equivalent to 600 l/ha. After the treatment, the pots are placed in a greenhouse and kept under good growth conditions for the trial plants. After about 3 weeks, the effect of the preparations is scored visually in comparison with untreated controls as percentages. For example, 100% activity=the plants have died, 0% activity=like control plants.
(§5) Tables 1a to 19c below show the effects/crop compatibilities of selected compounds of the general formula (I) on various harmful plants at an application rate corresponding to 20 to 320 g/ha, which were obtained by the trial procedure specified above.
as §2

[8] = test system: TRZAS; experiment: as above; format: in vivo, Triticum aestivum; settings: scored visually after about 3 weeks vs untreated controls
Excerpt: as §4, §5, §2

[9] = test system: GLXMA; experiment: as above; format: in vivo, Glycine max; settings: scored visually after about 3 weeks vs untreated controls
Excerpt: as §4, §5, §2

[10] = test system: BRSNW; experiment: as above; format: in vivo, Brassica napus; settings: scored visually after about 3 weeks vs untreated controls
Excerpt: as §4, §5, §2

[11] = test system: ORYSA; experiment: Post-emergence herbicidal effect and crop plant compatibility, greenhouse pot test; format: in vivo, Oryza sativa; settings: for Post-emergence effect against ORYSA: 80 g/ha, visual rating about 3 weeks after treatment, crop plant; for Post-emergence effect at 320 g/ha against ORYSA in %: one-leaf stage, rated visually after about 3 weeks vs untreated controls
Outline: as §1

[12] = test system: ORYSA; experiment: Pre-emergence herbicidal effect and crop plant compatibility, greenhouse pot test; format: in vivo, Oryza sativa; settings: scored visually after about 3 weeks vs untreated controls
Excerpt: as §4, §5, §2

[13] = test system: ALOMY; experiment: Post-emergence herbicidal effect, greenhouse pot test; format: in vivo, Alopecurus myosuroides; settings: Alopecurus myosuroides, 504 h, 320 g/ha, visual rating about 3 weeks after treatment, read-out: Post-emergence effect against ALOMY
Outline: as §3

[14] = test system: ECHCG; experiment: as above; format: in vivo, Echinochloa crus-galli; settings: Echinochloa crus-galli, 504 h, 320 g/ha, read-out: Post-emergence effect against ECHCG in %
Outline: as §3

[15] = test system: MATIN; experiment: as above; format: in vivo, Tripleurospermum inodorum; settings: Tripleurospermum inodorum, 504 h, 320 g/ha, read-out: Post-emergence effect against MATIN in %
Outline: as §3

[16] = test system: SETVI; experiment: as above; format: in vivo, Setaria viridis; settings: Setaria viridis, 504 h, 320 g/ha, read-out: Post-emergence effect against SETVI in %
Outline: as §3

[17] = test system: VERPE; experiment: as above; format: in vivo, Veronica persica; settings: Veronica persica, 504 h, 320 g/ha, read-out: Post-emergence effect against VERPE in %
Outline: as §3

[18] = test system: AMARE; experiment: Pre-emergence herbicidal effect, greenhouse pot test; format: in vivo, Amaranthus retroflexus; settings: Amaranthus retroflexus, 504 h, 320 g/ha, scored visually after about 3 weeks vs untreated controls, read-out: Pre-emergence effect at 320 g/ha against AMARE in %
Excerpt: as §4, §5, §2

[19] = test system: SETVI; experiment: as above; format: in vivo, Setaria viridis; settings: Setaria viridis, 504 h, 320 g/ha, scored visually after about 3 weeks vs untreated controls, read-out: Pre-emergence effect at 320 g/ha against SETVI in %
Excerpt: as §4, §5, §2

SMILES | Post-emergence effect against TRZAS ([2]; 80 g/ha) | Post-emergence effect against TRZAS ([2]; 320 g/ha) | Pre-emergence effect at 320 g/ha against ZEAMX in % [7] | Pre-emergence effect at 80 g/ha against TRZAS in % [8] | Pre-emergence effect at 320 g/ha against TRZAS in % [8] | Pre-emergence effect at 80 g/ha against GLXMA in % [9] | Pre-emergence effect at 320 g/ha against GLXMA in % [9] | Pre-emergence effect at 80 g/ha against BRSNW in % [10] | Pre-emergence effect at 320 g/ha against BRSNW in % [10] | Post-emergence effect at 80 g/ha against ZEAMX in % [1] | Post-emergence effect at 320 g/ha against ZEAMX in % [1] | Post-emergence effect against ORYSA [11] | Post-emergence effect against GLXMA ([3]; 80 g/ha) | Pre-emergence effect at 80 g/ha against ZEAMX in % [7] | Pre-emergence effect at 80 g/ha against ORYSA in % [12] | Pre-emergence effect at 320 g/ha against ORYSA in % [12] | pest or weed control at 320 g/ha [14] | pest or weed control at 320 g/ha [16] | pest or weed control at 320 g/ha [17] | plant injury at 80 g/ha [1] | further results
COC(=O)C(OC)Oc1nn(-c2cccc(C)c2F)c(-c2ccc(F)nc2)c1C1CC1 (stereo not shown) [Example I-93] | 10% | 20% | – | – | – | – | – | – | – | – | – | – | – | – | – | – | – | – | – | – | Post-emergence effect at 20 g/ha against ZEAMX in % ([1]; 20 g/ha): 10%; Post-emergence effect at 20 g/ha against TRZAS in % ([2]; 20 g/ha, one-leaf stage, rated visually after about 3 weeks vs untreated controls): 0%; Post-emergence effect against GLXMA ([3]; 20 g/ha): 20%; Post-emergence effect against ABUTH ([4]; 80 g/ha): 80%; Post-emergence effect against ABUTH ([4]; 320 g/ha): 90%; Post-emergence effect against AMARE [5]: 90%; Post-emergence effect against PHBPU in % [6]: 80%
CCOC(=O)C(OCC)Oc1nn(-c2ccc(Cl)cc2F)c(-c2ccc(F)cc2F)c1Br (stereo not shown) [Example I-09] | 0% | 0% | 10% | 0% | 20% | 10% | 10% | 0% | 0% | 0% | 0% | 10% | 10% | – | – | – | – | – | – | – | Post-emergence effect against GLXMA ([3]; 320 g/ha): 20%
CCOC(=O)C(OCC)Oc1nn(-c2ncccc2F)c(-c2ccc(F)cc2F)c1Br (stereo not shown) [Example I-08] | – | – | 10% | 0% | 0% | 0% | – | – | – | – | – | – | – | 0% | 0% | 0% | 80% | 80% | 80% | – | pest or weed control at 320 g/ha [13]: 90%; pest or weed control at 320 g/ha [15]: 80%
COC(=O)C(OC)Oc1nn(-c2ncccc2F)c(-c2ccc(Cl)cc2)c1Br (stereo not shown) [Example I-03] | – | – | 20% | – | 0% | 20% | – | 20% | – | – | – | – | – | 20% | 0% | – | 80% | 80% | 90% | 20% | pest or weed control at 320 g/ha [18]: 80%; Post-emergence effect at 320 g/ha against ORYSA in % [11]: 10%
CCOC(=O)C(OCC)Oc1nn(-c2ncccc2F)c(-c2ccc(Cl)cc2)c1Br (stereo not shown) [Example I-02] | – | – | – | – | – | 0% | 0% | 0% | 0% | – | – | – | – | – | 0% | 0% | – | – | – | 10% | pest or weed control at 320 g/ha [19]: 80%; Post-emergence effect at 320 g/ha against ORYSA in % [11]: 10%
COC(=O)C(OC)Oc1nn(-c2ccc(Cl)cc2F)c(-c2ccc(F)cc2F)c1Br (stereo not shown) [Example I-11] | 0% | 0% | – | 0% | 0% | 0% | 0% | – | – | 0% | 0% | 0% | 20% | 0% | – | – | – | – | – | – | –
